Assay results taken from patent US20020045603A1, “Method of inhibiting membrane-type matrix metalloproteinase” (The Research Foundation of State University of New York, priority 1998, published 2002).
Entries after “also recorded” stand apart in the source; their conditions may differ.

Tests used:
[1] = molecular target: T1, MT1-MMP (Homo sapiens, UniProt P50281); assay: Caseinolytic activity of recombinant MT1-MMP, casein zymography; format: biochemical
Procedure: In FIG. 3A, the proteolytic activity of MT1-MMP and its inhibition by a tetracycline compound was assessed using casein zymography: […]

[2] = system: HT-1080 fibrosarcoma cells; assay: Matrigel invasion of HT-1080 fibrosarcoma cells; format: cell-based, human; conditions: for concentration of maximal inhibition of invasion: 24 hr, 10% serum
Procedure: HT-1080 cells were allowed to invade through Matrigel (Collaborative Research, Bedford, Mass.) for 24 hr in medium containing 10% serum. CMT-3 or CMT-8 were added to the medium to assess their ability to inhibit invasivity of the cells. CMT-3 was tested at final concentrations of 1 μM or 10 μM; CMT-8 was tested twice at a final concentration of 50 μM. The invading cells were counted, and the relative numbers of cells were expressed as means of triplicate measurements.

[3] = system: HT-1080 fibrosarcoma cells; assay: Transwell migration of HT-1080 fibrosarcoma cells; format: cell-based, human; conditions: 18 hr, 10% serum; for inhibition of HT-1080 fibrosarcoma cell migration: 0.5 μM
Description: HT-1080 cells were allowed to migrate in the presence of medium containing 10% serum for 18 hr in Transwell chambers (Costar, Cambridge, Mass.). […] The data are expressed as means of triplicate measurements.

[4] = system: studied cell lines; assay: Cytotoxicity to the cells under the conditions used; format: cell-based; conditions: data not shown
[5] = system: cell surface integrins; assay: Blocking of cell surface integrins; format: cell-based; conditions: data not shown
[6] = system: studied cell lines; assay: Initial attachment and spreading of cells on extracellular matrix or Matrigel substrate; format: cell-based; conditions: data not shown
[7] = molecular target: T1, MT1-MMP; assay: Direct digestion of [3H-methyl]-gelatin by membrane fraction of MT1-MMP-transfected COS-1 cells; format: biochemical; conditions: 18 hr at 37° C.
Procedure: Confluent MT1-MMP-transfected COS-1 cells (2×10^7 cells) were harvested following treatment with trypsin-EDTA and washed thoroughly. Cells were suspended in 25 mM sucrose, 5 mM MgCl2 in Tris base, pH 7.4, and then subjected to nitrogen (N2) cavitation at 1000 p.s.i. for 30 min at 4° C. Whole cells and nuclei were removed by centrifugation at 770×g for 10 min, and the postnuclear supernatant was centrifuged at 6,000×g for 15 min to remove heavy organelles. The supernatant was centrifuged at 100,000×g for 60 min, and the cell membrane fraction, comprising plasma membranes, Golgi, and ribosomes, was recovered in the pellet. The 100,000×g supernatant was designated as cytosol.
Radiolabeled (^3H) collagen type I was denatured, to unravel the triple helix to produce [^3H-methyl]-gelatin. When separated by SDS-PAGE, and examined by autoradiography, the denatured collagen yields three bands: α(˜100 kDa), β(˜200 kDa), and γ(˜300 kDa), corresponding to the various components of the collagen in the sample. The tritiated gelatin substrate was incubated with a membrane fraction obtained by MT1-MMP-transfected COS-1 cells as described above. The gelatinolytic activity was calculated as % lysis of the α, β, and γ intact gelatin components assessed by laser densitometer scanning of the fluorogram.

[8] = molecular target: T1, MT1-MMP; assay: Activation of pro-gelatinase A by MT1-MMP membrane fraction, gelatin zymography; format: biochemical; conditions: 10, 20, and 50 μM; 18 h at 37° C.
Procedure: Recombinant pro-gelatinase A (72 kDa type IV gelatinase) can be activated to from 62 kDa active gelatinase by MT-MMP-containing plasma membrane fractions. To examine the ability of a tetracycline compound to inhibit this gelatinase activating property of MT-MMP, membrane fractions obtained according to Example 1B were incubated with recombinant human pro-gelatinase A for 18 h at 37° C. with or without CMT-3, and examined by zymography to evaluate enzyme activation.
Specifically, pro-MMP-2 was obtained from the culture-conditioned medium from MMP-2-transfected COS-1 cells.
Conditioned media were collected from the cultures that had been treated with CMT-3 for 2 days. Media were then incubated with SDS-gel electrophoresis sample buffer for 30 min at room temperature, and then analyzed by gel electrophoresis on SDS-polyacrylamide gel (10%) containing gelatin (1 mg/mL; Novex, Inc.). Following electrophoresis, the gels were washed twice with 0.25% TRITON® X-100 for 30 min each (to renature the gelatinase), and incubated for 18-24 hr at 37° C. in a Tris-HCl buffer, pH 7.4 (see, e.g., Lokeshwar 1993). After incubation, the gels were briefly rinsed in distilled water and stained with 0.25% Coomassie brilliant blue R250. The location of gelatinase activity in the gels is visible as a colorless area on an otherwise uniform blue background, indicative of digested gelatin.

[9] = molecular target: T1, MT1-MMP; assay: Conversion of pro-gelatinase A to active gelatinase A by recombinant MT1-MMP, SDS-PAGE; format: biochemical
Procedure: The proteolytic activity of MT1-MMP was assessed using gelatinase A zymography. Pure recombinant pro-MMP-2 (72 kDa gelatinase or pro-gelatinase A) and MT1-MMP were co-incubated in the presence or absence of CMT-3 (0.5-3.0 μM). After incubation, the enzyme mixture was examined by SDS-PAGE and the protein (enzyme) bands were stained with Coomassie brilliant blue.

[10] = system: MG-63 osteosarcoma cells; assay: MMP-2 expression and MT1-MMP-dependent activation of pro-MMP-2, concanavalin A-treated MG-63 cells, zymography; format: cell-based, human
Procedure: MG-63 cells, an osteosarcoma cell line, were grown in culture and treated with 40 μg/mL concanavalin A to induce MT1-MMP-dependent activation of pro-MMP-2. Culture-conditioned medium was collected, as a source of pro-MMP-2, and was incubated in the presence of the membrane fraction of COS-1 cells transfected to express MT1-MMP.

[11] = Serum half-life; conditions: in vivo
[12] = system: normal cells; assay: Cytotoxicity in normal cells; format: cell-based
[13] = system: prostate and melanoma tumor; conditions: in vivo; Lokeshwar et al. 1998; Seftor et al. 1998; cited from earlier work
[14] = Solubility in aqueous systems; format: physicochemical
[15] = rat, in vivo, po

O=S(=O)(F)Cc1ccccc1 [PMSF, reference compound]
inhibition of caseinolytic activity ([1]; 0.5 mM): did not inhibit

C[C@H]1c2cccc(O)c2C(O)=C2C(=O)[C@]3(O)C(O)=C(C(N)=O)C(=O)C[C@@H]3[C@@H](O)[C@@H]21 [CMT-8, 6-deoxy-5α-hydroxy-4-de(dimethylamino)tetracycline]
concentration of maximal inhibition of invasion [2]: 50 µM
inhibition of HT-1080 fibrosarcoma cell migration [3]: clear inhibition; also recorded: Effective inhibition
concentration of maximal inhibition of migration [3]: 50 µM
cytotoxicity to the cells [4]: not cytotoxic
blocking of cell surface integrins [5]: did not block
initial attachment and spreading of studied cell lines [6]: did not prevent

NC(=O)C1=C(O)C[C@@H]2C[C@@H]3Cc4cccc(O)c4C(=O)C3=C(O)[C@]2(O)C1=O [CMT-3, 6-demethyl-6-deoxy-4-de(dimethylamino)tetracycline]
inhibition of gelatinolytic activity ([7]; 5 μM): 16.3%
inhibition of gelatinolytic activity ([7]; 10 μM): 35%
inhibition of gelatinolytic activity ([7]; 20 μM): 32%
inhibition of MT1-MMP-induced activation of pro-gelatinase A [8]: inhibited
IC50 [1]: 1000 to 3000 nM
inhibition of caseinolytic activity ([1]; 0.5, 1.5, and 3.0 μM, 50 ng MT1-MMP, β-casein 52 μM): progressive inhibition of caseinolytic activity by increasing
inhibition of the formation of the smaller molecular weight species of gelatinase A ([9]; 3.0 μM): essentially completely inhibits
inhibition of the conversion of pro-gelatinase A to active gelatinase A ([9]; 0.5, 1.0, 1.5 and 3.0 μM, 50 ng recombinant MT1-MMP): progressive inhibition
gelatin-degrading activity of incubated medium ([10]; 0.5 μM to 3.5 μM): inhibited
percent of activated MMP-2 in the total expressed MMP-2 ([10]; 0.5 μM to 3.5 μM): decreased in a dose-dependent fashion
active MMP-2 ([10]; 3.0 μM and 3.5 μM): no active MMP-2 was detected
prevention of invasion in comparison to CMT-8 [2]: slightly more effective
concentration of maximal inhibition of invasion [2]: 50 µM
inhibition of HT-1080 fibrosarcoma cell migration [3]: clear inhibition; also recorded: Effective inhibition
concentration of maximal inhibition of migration [3]: 50 µM
cytotoxicity to the cells [4]: not cytotoxic
blocking of cell surface integrins [5]: did not block
initial attachment and spreading of studied cell lines [6]: did not prevent
serum half-life [11]: approximately 28 hr
cytotoxicity in normal cells [12]: little or substantially no cytotoxicity
tumor growth and metastasis [13]: suppress prostate and melanoma tumor growth and metastasis

CN(C)C1C(=O)C(C#N)=C(O)C2(O)C(=O)C3=C(O)c4c(O)cccc4C(C)(O)C3CC12 (stereo not shown) [CMT-2, tetracyclinonitrile]
solubility in aqueous systems [14]: low solubility
blood levels [15]: no detectable blood levels

O=C(O)CN(CCN(CC(=O)O)CC(=O)O)CC(=O)O [EDTA, reference compound]
inhibition of caseinolytic activity ([1]; 2 mM): did inhibit
